From ChEMBL document CHEMBL1130647, “Synthesis and in vitro cytotoxicity of 3-substituted-1,8-diazaanthraquinones produced by Lewis-acid catalyzed hetero Diels-Alder reaction” (Bioorg Med Chem Lett, 1998)

Key:
Assay type in all cases: functional, cell-based
Conditions in all cases: Homo sapiens
HCT-15 = assay: In vitro cytotoxic activity against HCT15 (colon cancer) cell lines by using SRB assay
SF-295 = assay: In vitro cytotoxic activity against SF-295 (CNS carcinoma) cell lines by using SRB assay
SK-OV-3 = assay: In vitro cytotoxic activity against SK-OV-3 (ovarian carcinoma) cell lines by using SRB assay
HOP-62 = assay: In vitro cytotoxic activity against HOP62 (lung cancer) cell lines by using SRB assay

| SMILES | IC50 (HCT-15) [nM] | IC50 (SF-295) [nM] | IC50 (SK-OV-3) [nM] | IC50 (HOP-62) [nM] |
| --- | --- | --- | --- | --- |
| Cc1cnc2c(c1)C(=O)c1cccnc1C2=O | 350 | 250 | 40 | 15 |
| O=C1c2cccnc2C(=O)c2ncc(CBr)cc21 | 400 | 500 | 300 | 55 |
| O=C1c2cccnc2C(=O)c2ncc(CO)cc21 | 400 | 300 | 200 | 100 |
| CC(C)NC(=O)OCc1cnc2c(c1)C(=O)c1cccnc1C2=O | 20 | 100 | 20 | 6 |
| COc1cccc2c1C(=O)c1c(O)c3c(c(O)c1C2=O)C[C@@](O)(C(=O)CO)C[C@@H]3O[C@H]1C[C@H](N)[C@H](O)[C@H](C)O1 [DOXORUBICIN] | 100 | 35 | 20 | 4 |
